Several values for one entry are separate records, joined by “and”; a condition that tells them apart may be missing. Equal entries are not always repeated.
Key:
ovariectomised rats [1] = assay: Hot flush model: tail skin temperature after naloxone withdrawal in morphine-addicted ovariectomised rats; assay type: in vivo, rat; conditions: vehicle rats 5-6° C. elevation
Experimental: (§1) Virgin adult cycling Sprague-Dawley rats weighing 300-350 g (Example 4) and 190-210 g (Example 5) and with regular 4-day oestrous cycles were used (Möllegaard, Denmark). The rats were housed 4 to each cage with free access to pelleted food and tap water at 22° C. and with a 12 h light/12 h dark cycle for at least 1 week before and throughout the experimental period.
In this study, ovariectomised rats (300-350 g) were treated with oxytocin for 8 days subcutaneously. Rats were addicted to morphine by implanting a morphine pellet (75 mg each) subcutaneously on days 3 and 5 of treatment. On the last day of treatment, an infrared thermistor was placed above the tail of each animal and morphine addiction was withdrawn by naloxone injection (1.0 mg/kg, subcutaneously). Temperature measurements were taken for 1 h under ketamine (80 mg/kg. intramuscularly) anaesthesia.

ovariectomised rats [2] = assay: Tail-flick test in ovariectomised rats after intravaginal oxytocin; assay type: in vivo, rat; conditions: tails in water at 51° C.; intravaginal oxytocin versus saline; FIG. 4
Experimental: One way of applying somatic discomfort to an organism is to subject a part of it to a high temperature. This relief effect of oxytocin was investigated in a tail-flick test. In this test the tails of ovariectomised rats were immersed in water at 51° C. With reference to FIG. 4, the latency time from the immersion of the tails to the withdrawal thereof were measured for rats treated with oxytocin (▴) and rats treated with saline (□). For each group of rats, the test sessions were accomplished three times with a period of 15 minutes between the sessions. […] A longer latency time means that the rat could stand the somatic discomfort better such as increased temperature ta it otherwise would do.

ovariectomized rats = assay: Bone loss in ovariectomized rats, densitometric and morphometric studies; assay type: in vivo, rat
Experimental: Four lots of 120-day-old female Wistar rats (mean±SD initial weight 273±28 g) were used. The rats were randomized into groups based on their body weight. […] Sample size was calculated in a pilot study after determining the variability of densitometric measurements.
All rats were fed standard chow feed containing 7.1 g/kg of calcium and 5 g/kg of phosphorus; the energy content of the feed was 3100 kcal/kg. A control group of 15 rats were not manipulated but fed the stud diet (control group, mean initial weight 269±31 g). A experimental group of 15 rats was ovariectomized at 120 days of life and given oxytocin for 10 days 1.0 mg/kg sc. (OVX+Oxy group, mean initial weight 277±32 g). A group of 15 rats underwent ovariectomy (OVX group, mean initial weight 282±27 g). […] The ovariectomy was performed as in previous studies [Rico H, Amo C, Revilla M, Arribas I, Gonzalez-Riola J, Villa L F, Rodriguez-Puyol M Etidronate versus Clodronate in the prevention of postovariectomy bone loss. An experimental study in rats. Clin Exp Rheumatol 1994, 12:301-304]. The manipulated rats were controlled to observe the development of intestinal function, alterations, and infection or dehiscence of surgical sutures. All rats received water ad libitum. The rats were kept for 30 days in the animal laboratory of department of Physiology and Pharmacology, Karolinska Institutet Living conditions (12 hours of light and 12 hours of darkness; mean room temperature 22° C.), habitat, and diet met current guidelines of the European Union. Weight was measured with a precision biomedical balance.
Densitometric and Morphometric Studies. After 30 days, all rats were anesthetized and killed by exsanguination from the abdominal aorta after being anesthetized with 4 mg/100 g body weight of sodium pentothal. The femur and 5th lumbar vertebra of rat were dissected and placed in an 85° C. water bath to remove soft tissue. Femoral length and vertebral height were measured with a caliper and bones were weighed on a precision balance. The BMC and BMD of the whole right femur and 5th lumbar vertebra were measured using a desitometer equipped with a special program for studying small […] and samples. The instrument was calibrated daily. Because of the influence of weight on bone mass in rate [Rico H, Amo C, Revilla M, Arribas I, Gonzalez-Riola J, Villa L F, Rodriguez-Puyol M Etidronate versus Clodronate in the prevention of postovariectomy bone loss. An experimental study in rats. Clin Exp Rheumatol 1994, 12:301-304] and human beings [Rico H, Revilla M, Villa L F, Alvarez de Buergo M A, Ruiz-Contreras D Determinants of total and regional bone mineral content and density in postpubertal normal women. Metabolism 1994, 43 :263-266], BMC was corrected for final body weight (BMC/BW). The BMC and BMD of the femurs and 5th lumbar vertebra were measured separately.

[3] = test system: postmenopausal women with atrophic, ulcerous vaginal mucous membranes; assay: Intravaginal oxytocin administration to postmenopausal women (seven women, inspection by gynaecologist); assay type: in vivo, human; conditions: oxytocin 1 mg/ml mixed with 1 ml cellulose gel intravaginally
Experimental: Seven women at an age of 60-70 years, otherwise completely healthy, with expressed postmenopausal disorders in the form of white, thin, atrophic, easy-bleeding and ulcerous vaginal mucous membranes were included in the study. They were treated with oxytocin 1 mg/ml mixed with 1 ml cellulose gel intravaginally driving five consecutive days,
The treatment was effected by a gynaecologist who inspected the mucous membranes. After a treatment lasting 2-3 days, the mucous membranes had improved in that they looked like those in a female woman.
At the same time, it was observed that the mood of the women was improved. They seemed obviously happy and reported that they felt happy, and many of them had resumed their sex lives.

[4] = test system: women two years into menopause with vaginal rash, pain and dryness; assay: Double blind intravaginal oxytocin gel versus cellulose gel in 20 menopausal women, biopsy and interview; assay type: in vivo, human
Experimental: Besides, a further experiment was conducted, wherein 20 women, all of them at two years into menopause and otherwise healthy. None of them underwent hormone replacement therapy. All patients had objective and subjective symptoms of vaginal rash, pain and a feeling of dryness.
Ten patents were treated with oxytocin 1 mg/ml mixed with 1 ml close gel intravaginally during five consecutive days, whereas the remaining ten patients were treated with 1 ml cellulose gel intravaginally dog five consecutive days as control. Before treatment with either control or oxytocin gel we took a biopsy, this procedure was repeated after 5 days of treatment. The protocol was a double blind protocol, ie the microscopic evaluations were performed by the same experienced pathologist before the code was broken.

ovariectomised rats [5] = assay: Subcutaneous oxytocin administration to ovariectomised rats, endocrine study; assay type: in vivo, rat; conditions: 1 mg/kg subcutaneously during five days
Experimental: (§2) Female sexually mature Sprague-Dawley rats weighing 250-300 g were used (B & K Universal Sollentuna, Sweden). The rats were housed 5 to each cage with free access to food and tap water at 20±2° C. and with a 12 h light/12 h dark cycle for at least 3 weeks before and throughout the experimental period.
Ovariectomy means removal of an ovary or ovaries and can eg be effected according to Merchentaler, I., Funkhouser, J. M., Carver, J. N, Lundeen, S. G., Ghosh, K, Winneker, R. C. The effect of estrogens and antiestrogens in a rat model for hot flush. Maturitas, Nov 16, 1998; 30(3): 307-316.
In an experimental animal study, eight ovariectomised rats were treated with oxytocin. The ovaries were removed in order to create a menopause-like situation. After a mouth, an endocrine study was made. The “menopausal” rats get a changed hormone balance. Their insulin levels and, to a certain extent their blood sugar levels rise, possibly in consequence of increased insulin resistance. Their cortisol and growth hormone levels decrease, which expresses an inability to mobilise calories for activity. An oxytocin treatment during five days (1 mg/kg given subcutaneously during five days) restored the hormone balance.

[6] = test system: rats with experimentally-induced polycystic ovaries; assay: Oestradiol valerate induced polycystic ovaries (PCO) in rats, NGF and ovarian morphology; assay type: in vivo, rat; conditions: oxytocin 1.0 mg/kg subcutaneously every third day
Experimental: as §1
Statistical analyses were carried out using the SPSS 8.0 software. NGF concentrations in the pituitary gland, the hypothalamus, the hippocampus, the ovary, and the adrenal glands were analysed and the groups compared using analyses of variance (ANOVA) followed by multiple comparison procedures Bonferroni test).
All rats (totally 59) received a single intramuscular injection either of oestradiol valerate (EV), oil, or 0.15 M NaCl (Kabi Pharmacia AB, Sweden) and were anaesthetised with enflurane. Twenty rats re injected with 4 mg EV in 0.2 ml oil/rat (ten rats in the control group and ten in the oxytocin treated). They were decapitated after 30 days to elucidate when the ovaries display characteristic features of well-defined PCO (Brawer et al., 1978, Supra; Brawer et al., 1986, supra). The oxytocin treated group received subcutaneous oxytocin 1.0 mg/kg subcutaneously every third day during the experimental period.

ovariectomised rats [7] = assay: Forward locomotion of ovariectomised rats after intravaginal oxytocin gel; assay type: in vivo, rat; set-up: forward locomotion, Minutes 1-15 / forward locomotion, Minutes 16-30 / forward locomotion, Minutes 1-30 / forward locomotion, Minutes 1-15, AVERAGE / forward locomotion, Minutes 16-30, AVERAGE / forward locomotion, Minutes 1-30, AVERAGE: unit not given here
Experimental: as §2
The ovaries of seven female rats were removed. After 2 weeks, the rats were treated with oxytocin gel given intravaginally (conc. 1 mg/ml). […] Most probably, there is an activation of nerves present in the vaginal mucous membrane.
The total experimental time is 30 minutes per rat, and the values in table I show the forward locomotion for the first 15 minutes, for the whole experimental time, and for the last 15 minutes.

ovariectomised rats [8] = assay: Subcutaneous oxytocin combined with hormone treatment in ovariectomised rats, plasma corticosterone and GH; assay type: in vivo, rat; conditions: oxytocin 1 mg/kg s.c. five days, FIG. 2
From the text: FIG. 2 is a bar graph showing the plasma concentrations of corticosterone and growth hormone (GH) in ovariectomised rats subjected to subcutaneous treatment. Group A refers to rats treated with oestrogen, progesterone, and oxytocin. Group B refers to rats treated with oestragen and progesterone. Group C refers to rats treated with oxytocin. Group D refers to rats treated with saline.
as §2
In another experimental animal study, the effect of oxytocin (1 mg/kg given subcutaneously during five days) combined with hormone treatment was investigated. All treatment groups A-D each contained eight ovariectomised rats. […] Analogously to the insulin levels, the corticosterone and GH levels were normalised (but increased) by oxytocin treatment.

ovariectomised rats [9] = assay: Weight change in ovariectomised rats given subcutaneous oxytocin; assay type: in vivo, rat
Experimental: as §2
A rat having its ovaries removed also gains weight compared to untreated rats.

[10] = ovariectomized rats, oxytocin 1.0 mg/kg sc for 10 days, after 30 days, mean ± SD
[11] = individual rats R1-R7, oxytocin gel 1 mg/ml intravaginally

C#C[C@]1(O)CC[C@H]2[C@@H]3CCc4cc(O)ccc4[C@H]3CC[C@@]21C [17-alpha-ethinyloestradiol]
tail skin temperature increase (flashes) after naloxone (ovariectomised rats [1]; 0.1 m g subcutaneous): significantly inhibited

oxytocin
tail-flick latency time (immersion to withdrawal) (ovariectomised rats [2]): increases the latency time
F-BMC (femur bone mineral content) (ovariectomized rats; [10]): 335 ± 37 mg
F-BMC/BW (femur BMC corrected for final body weight) (ovariectomized rats; [10]): 1.12 ± 0.09 mg/g
F-BMD (femur bone mineral density) (ovariectomized rats; [10]): 131 ± 18 mg/cm^2
Femur (femoral length) (ovariectomized rats; [10]): 35.5 ± 1.3 mm
Femur (weight) (ovariectomized rats; [10]): 712 ± 42 mg
V-BMC (5th lumbar vertebral bone mineral content) (ovariectomized rats; [10]): 110 ± 16 mg
V-BMD (5th lumbar vertebral bone mineral density) (ovariectomized rats; [10]): 107 ± 13 mg/cm^2
Vertebra (5th lumbar vertebra weight) (ovariectomized rats; [10]): 273 ± 32 mg
Vertebra (5th lumbar vertebral height) (ovariectomized rats; [10]): 6.9 ± 0.6 mm
Final weight (ovariectomized rats; ovariectomized rats, oxytocin 1.0 mg/kg sc for 10 days, after 30 days, mean ± SD, 15 rats): 334 ± 31 g
bone loss in ovariectomized rats (ovariectomized rats; oxytocin treatment for 10 days): suppresses bone loss
mood of the women [3]: improved
treatment time until mucous membranes had improved [3]: 2 to 3 days
ulcers of vaginal mucous membranes ([3]; after 2-3 days): all ulcers had disappeared
state of vaginal mucous membranes on inspection ([3]; five consecutive days, seven women 60-70 years): improved
inflammation in histology (biopsy) ([4]; after 5 days of treatment): no or a lesser degree of inflammation
histology of vaginal epithelium (biopsy) ([4]; after 5 days of treatment, except cases with normal epithelium before treatment): normalization of the epithelium
subjective relief in interviews ([4]; oxytocin 1 mg/ml in 1 ml gel intravaginally, five days, ten patients, versus cellulose gel control): expressed relief
blood sugar levels (ovariectomised rats [5]; compared to NaCl controls): normalised
plasma insulin levels (ovariectomised rats [5]; compared to control rats treated with NaCl, FIG. 1): normalised ie lowered
tail skin temperature increase (flashes) after naloxone (ovariectomised rats [1]; repeated oxytocin 1.0 mg/kg subcutaneous for 8 days): significantly inhibited
concentrations of NGF in the ovaries ([6]; 30 days, compared to non-oxy-treated PCO rats): significantly lower
ovarian morphology (PCO changes) ([6]; versus EV control group): significantly less changes
forward locomotion, Minutes 1-30, AVERAGE (ovariectomised rats [7]; average of 7 rats (SD 1.36), control average 24.71, T-test 0.03*): 26.91
forward locomotion, Minutes 1-15, AVERAGE (ovariectomised rats [7]; average of 7 rats (SD 1.81), control average 27.10, T-test 0.04*): 30.20
forward locomotion, Minutes 16-30, AVERAGE (ovariectomised rats [7]; average of 7 rats (SD 2.86), control average 18.33, T-test 0,44 ns): 20.13
forward locomotion, Minutes 1-30 (ovariectomised rats [7]; [11]): 27.7 (2×) and 25.3 and 25.1 and 26.3 and 28.7 and 27.6
forward locomotion, Minutes 16-30 (ovariectomised rats [7]; [11]): 20.3 and 19.8 and 17.7 and 23.2 and 21.6 and 15.3 and 23
forward locomotion, Minutes 1-15 (ovariectomised rats [7]; individual rats R1-R7, oxytocin gel 1 mg/ml intravaginally, two days after completed treatment): 30.7 and 27.8 and 28.8 and 28.6 and 32.2 and 32.3 and 31
behaviour changes (motor activity such as forward locomotion) (ovariectomised rats [7]; two days after completed intravaginal treatment, compared to gel without oxytocin): increased motor activity
plasma GH levels (ovariectomised rats [8]; compared with saline treated rats, eight rats per group): significantly higher
plasma corticosterone levels (ovariectomised rats [8]; compared with rats treated with oestrogen+progesterone): significantly higher
food intake (ovariectomised rats [9]; oxytocin for 10 days): do not eat less
weight gain after ovariectomy (ovariectomised rats [9]; oxytocin for 10 days subcutaneously, versus saline controls, FIG. 3): do not gain weight as much

Reference: US20040029787A1, “Use of substances with oxytocin activity against climacteric disorders” (priority 2000, published 2004)
